For eight compounds, Ki results are on record in BindingDB's records for doi:10.1074/jbc.M112.356576 (University of Adelaide, 2012).

A value given as a limit tells only on which side of the number the result lay.

For orientation: Ki means the equilibrium dissociation constant of an inhibitor or competing ligand from its target. Read a high Ki as weaker binding.

This assay deals with T1, Bifunctional ligase/repressor BirA (Staphylococcus aureus, UniProt A0A3A5LBF0).
T1 sequence (A0A3A5LBF0 whole entry): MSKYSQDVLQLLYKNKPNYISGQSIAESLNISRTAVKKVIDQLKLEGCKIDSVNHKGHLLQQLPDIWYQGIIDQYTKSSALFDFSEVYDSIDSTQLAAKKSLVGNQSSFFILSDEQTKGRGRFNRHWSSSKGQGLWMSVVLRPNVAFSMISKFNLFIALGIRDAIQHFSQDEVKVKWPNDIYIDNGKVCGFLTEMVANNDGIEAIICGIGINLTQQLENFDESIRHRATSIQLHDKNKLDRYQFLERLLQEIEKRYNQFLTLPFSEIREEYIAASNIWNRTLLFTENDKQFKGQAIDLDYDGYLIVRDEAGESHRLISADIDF
Description: Enzyme Inhibition Assay. From the text: In vitro enzyme inhibition using biotin protein ligase.

In the case of `O=C1NC2CS[C@@H](CCCCCc3cn(CCCCOc4ccc5ccccc5c4)nn3)C2N1` (stereo partly drawn) [Biotin triazole, 13], the affinity, expressed as Ki, was 1170 nM. Then `O=C1NC2CS[C@@H](CCCCCc3cn(CCCOc4ccc5ccccc5c4)nn3)C2N1` (stereo partly drawn) [Biotin triazole, 15], with above 10000 nM. `Nc1ncnc2c1NCN2[C@@H]1O[C@H](Cn2cc(CCCCC[C@@H]3SCC4NC(=O)NC43)nn2)[C@@H](O)[C@H]1O` (stereo partly drawn) [Biotin triazole, 5] registered a Ki of 1170 nM. In other words, the single-digit micromolar range. Then `Cc1ccc2oc(=O)n(CCCCn3cc(CCCCC[C@@H]4SCC5NC(=O)NC54)nn3)c2c1` (stereo partly drawn) [Biotin triazole, 14], with 90 nM; and `O=C1NC2CS[C@@H](CCCCCc3cn(CCCCOc4ccccc4)nn3)C2N1` (stereo partly drawn) [Biotin triazole, 11], with above 10000 nM; and `CC(C)(C)C(=O)OCCn1cc(CCCCC[C@@H]2SCC3NC(=O)NC32)nn1` (stereo partly drawn) [Biotin triazole, 10], with above 10000 nM. Regarding `O=C1NC2CS[C@@H](CCCCCc3cn(CCCCOc4cccc5ccccc45)nn3)C2N1` (stereo partly drawn) [Biotin triazole, 12], the Ki is above 10000 nM. Then `Cc1ccc2oc(=O)n(CCCn3cc(COCCC[C@@H]4SCC5NC(=O)NC54)nn3)c2c1` (stereo partly drawn) [Biotin triazole, 16], with above 10000 nM.
